The values below come from patent US12291494B2, “Methods of treating fibrosis” (Nogra Pharma Limited, priority 2012, dated 2025).

The subject of assay [1] is main markers of fibrosis (Collagen I-III, CTGF, SMAD 2/3, PDGF, α-SMA, and TGF-β1). Nature of the assay: DSS intestinal fibrosis study: immunohistochemical analysis of colon. The format is in vivo, mice. How it is done: For the immunohistochemical analysis, tissue specimens from the colon were fixed in fresh 4% paraformaldehyde (PFA)/PBS solution for 3 h at room temperature, dehydrated in a graded ethanol series, and embedded in low-temperature-fusion paraffin. 3-μm-thick sections were incubated in methanol for 40 min and then in 3% hydrogen peroxide for 5 min. Samples were incubated overnight with specific antibodies against collagen types I-III (Abcam), connective tissue growth factor (CTGF) (Abcam), Platelet Derived Growth factor (PDGF), SMAD2/3, the main markers of fibrosis. The samples were washed for 5 min with PBS and incubated with streptavidin-biotin-peroxidase conjugated secondary antibody (Dako LSAB Corporation, cod K0675, Dako-Cytomation, Milano). After a wash in PBS for 10 min the sections were subjected to incubation with 3,3-diaminobenzidine-tetrahydrochloride for 1-3 min.
The specificity of immune reaction was performed omitting the primary antibodies Finally the samples were stained with hematoxylin of Mayer and observed under the Olympus BX51 Light Microscope (Olympus, Optical Co. Ltd., Tokyo, Japan).

For a further assay, the system named is Collagen-1. Kind of assay: Liver gene expression by quantitative Real Time PCR: collagen-1. In kind it is in vivo, mice. The note with it: liver mRNA, normalized to β-actin, CCl4 group 138.12 ± 34.68. How it is done:
The effect of administration of compound 34 (GED) and the specific CB2 agonist (JWH-133) was evaluated on the level of gene expression of cytokines (IL-1β, TNF-α) and genes involved in the mechanism of fibrosis by quantitative Real Time PCR.
Total RNA was isolated from livers using Rneasy kit (Macherey Nagel, Hoerdt, France) according to the manufacturer's instructions. RNA quantification was performed using spectrophotometry. After treatment at 37° C. for 30 min with 20-50 units of RNase-free DNase I (Roche Diagnostics Corporation, Indianapolis, IN, USA), oligo-dT primers (Roche Diagnostics Corporation, Indianapolis, USA) were used to synthesize single-stranded cDNA. mRNAs were quantified using SYBR green Master Mix (Applera, Courtaboeuf, France) with murine specific oligonucleotides (see Table 2) in a GeneAmp Abiprism 7000 (Applera, Courtaboeuf, France). In each assay, calibrated and no-template controls were included. Each sample was run in triplicate. SYBR green dye intensity was analyzed using the Abiprism 7000 SDS software (Applera, Courtaboeuf, France). All results were normalized to the unaffected housekeeping gene β-actin.
(In qPCR the cycle at which signal appears reflects the starting amount.)

The subject of assay [2] is C57BL/6 mice. Nature of the assay: DSS chronic colitis (Ex. 7): microscopic colonic lesions (H&E, Masson's trichrome). The format is in vivo. The protocol:
The macroscopic colonic lesions including dilation, thickness and stenosis were scored by an independent observer, unaware of the mice treatment. Tissue specimens from the colon were dissected and immediately frozen or fixed in fresh 4% formaldehyde (FA)/PBS solution for 3 h at room temperature followed by the standard procedure for paraffin embedding. Paraffin embedded tissues transversally sectioned at 3 μm were subject to Hematoxylin/Eosin staining, to assess the inflammatory degree, and Masson trichrome to better assess connective tissue and fibrosis. […] The degree of intestinal inflammation was assessed according to the density and extent of chronic inflammatory infiltrate, loss of goblet cells, and bowel wall thickening. […]
Intestinal fibrosis was scored as absent, mild, or severe, depending on the density and extent of trichrome-positive connective tissue staining and disruption of tissue architecture.

For another assay, the system named is C57bl6 mice. Kind of assay: DSS intestinal fibrosis study (Ex. 5/6): colon ratio weight/size. In kind it is in vivo. The protocol: This example describes an experiment to evaluate the effect of compound 34 on intestinal fibrosis. Chronic colitis was induced in C57bl6 mice by 3 cycles of 2.5% DSS (40,000-50,000 MW, TdB consultancy AB, Sweden) dissolved in sterile drinking water for 5 days followed by 7 days of regular drinking water.
Compound 34 was used at its optimal dosage (30 mM) and administered by oral gavage daily after the second cycle of DSS and until euthanasia. Mice receiving DSS were checked twice a week for development of colitis by monitoring body weight. Euthanasia of mice was performed one week after the third cycle of DSS (see FIG. 5). Evaluation of the size and weight of the colon was evaluated post mortem.
Intestinal fibrosis is characterized by a shortening and thickening of the colon and adherences. The measure of the ratio weight/size of the colon is an indicator of the level of inflammation and fibrosis. […] Compound 34 causes a 34% reduction in the profibrotic effect of DSS leading to a significant decrease ratio weight/size of the colon of 38.13±7.82 vs 44.98±6.31 (p<0.05) compared to DSS mice receiving the vehicle (FIG. 6A). Accordingly, it reduces the morphological signs of fibrosis such as the shortening and the thickening of the colon and it decreases the collagen deposit in the colon (FIG. 6B).

For assay [3], the system named is C57BL/6 mice. Nature of the assay: DSS chronic colitis (Ex. 7): assessment of colitis course. In kind it is in vivo. How it is done:
Chronic colitis and fibrosis were induced in mice by oral administration of 2.5% (w/v) DSS in drinking water, for three cycles (5 day DSS, 7 days of water). Animals were monitored daily for food and fluid intake and were weighed at the beginning of the study and thereafter regularly every three days.
The mice were randomly divided into two groups: i. DSS and ii. DSS+GED. Each group consisted of 25 mice and was compared with 10 control animals, which received only water. GED (30 mg/kg/mouse) was dissolved in a solution containing 0.5% Carboxymethylcellulose sodium salt (CMC; MW: 90,000 Da; Sigma Aldrich) and 1% Tween 80 and was administrated daily by oral gavage (100 μl/mouse). GED was administered at the beginning of second cycle.
Animals were observed daily for fluid intake, weight changes, and examined for signs of colitis including weight loss, diarrhoea, rectal bleeding and prolapse as well as signs of systemic inflammation such as piloerection, lethargy, and periorbital exudates.

Consider `COC(Cc1ccc(N)cc1)C(=O)O` (racemic) [Compound 34, (±)-2-methoxy-3-(4′-aminophenyl) propionic acid], for which the “main markers of fibrosis (Collagen I-III, CTGF, SMAD 2/3, PDGF, α-SMA, TGF-β1) by IHC” value in assay [1] (colon of DSS mice vs colitic mice receiving vehicle, FIG. 9A-9E) was “a reduction of the main markers of fibrosis”. In addition, in assay [1] (colon of DSS mice, FIG. 9A), the “collagen staining (immunohistochemical analysis)” value is given as “decrease in the collagen staining”. The Collagen-1 was 75.15 ± 5.23, p = 0.03 with Collagen-1 and 42.81±14.81 in the assay with Collagen-1 (listed as compound 34). The “intestinal wall architecture (H&E, Masson's trichrome)” value in the assay on C57BL/6 mice [2] (FIG. 12 legend, result in words) is “restoring of normal intestinal wall architecture”. Further, the “Total microscopic score (maximum 10)” value in the assay with C57BL/6 mice [2] (daily oral GED, DSS 6.45±0.82, FIG. 12) is given as 3.36±0.55. In addition, the “ratio weight/size of the colon” value in the assay with C57bl6 mice (compound 34 30 mM 200 uL oral gavage daily day 13-36, DSS vehicle 44.98±6.31, control 20.11±3.91) was 38.13±7.82. Further, the “reduction in the profibrotic effect of DSS (colon ratio weight/size)” value in the assay on C57bl6 mice (compound 34 30 mM oral gavage) amounted to 34%. Also, in the assay on C57BL/6 mice [3] (chronic DSS colitis, GED 30 mg/kg oral daily, mean ± SEM), the Body weight is 25.132 ± 0.458 ^. This compound gave a Mortality in the assay on C57BL/6 mice [3] (chronic DSS colitis, GED 30 mg/kg oral gavage daily, DSS 2) of 0 n. mice. Besides, the “mice with systemic manifestations (piloerection, periorbital exudates and/or lethargy)” value with C57BL/6 mice [3] (seventh day of DSS oral administration, DSS mice 40%) is reported as 30%. The “mice with moderate to severe diarrhea” value in the assay on C57BL/6 mice [3] (seventh day of DSS oral administration, DSS mice 70%) was determined as 50%.
